Test results reported in PMC10327353 (Breast Cancer Research : BCR, 2023).

Assays:
[1] = Human hepatocyte intrinsic clearance; type: in vitro ADME; conditions: human hepatocytes; read-out: Human Heps Clint
[2] = In vivo CNS-PK study in rat; conditions: female, Wistar Han, brain and CSF (relative to unbound plasma/blood), single PO dose of DZD1516 30 mg/kg
Experimental: The ability of DZD1516 and DZ2678 to cross the BBB in female Wistar Han rat and female Cynomolgus monkey was studied by assessing the free brain-to-plasma ratio (Kp,uu,brain) and CSF-to-free plasma ratio (Kp,uu,CSF). Total brain-to-blood ratio (Kp,brain) and CSF-to-blood ratio (Kp,CSF) were measured from six time points after oral administration. Free fractions of DZD1516 and DZ2678 in the biological matrix were determined by in vitro plasma and brain binding assay.
Kp,brain= AUCbrain/AUCblood. Kp,CSF was the average of the CSF-to-blood ratios at the evaluated time points. Kp,uu,brain= Kp,brain× fu,brain/fu,blood; Kpuu,CSF= Kp,CSF/fu,blood.
In total, twenty-one female Wistar Han rats were administered with a single PO dose of DZD1516 at 30 mg/kg. The PO dosing formulation was a suspension in 0.5% HPMC E5 in water (w/v). Plasma, brain, and CSF samples were collected at 0.5, 1, 2, 4, 8, 24, and 30 hrs post-dose. The concentrations of DZD1516 and metabolite DZ2678 in plasma, brain, and CSF samples from the rats, as well as in plasma and CSF samples from the monkeys, were determined by the validated LC-MS/MS method.

[3] = tested on: BT474C1-Luci Mono1 BM xenograft; assay: BM (brain metastasis) BT474C1-Luci Mono1 xenograft model; type: in vivo, nude mice
Experimental: The BM model was established by intracerebral (ICB) injection of 4 µl of cell suspension containing 3 × 10^5 cells into each mouse following similar procedures published (30). In brieft, 17β- ESTRADIOL (90-day release 0.36 mg/pellet) were injected subcutaneously 24 hrs before cell inoculation. Under anesthesia, a sagittal incision (approximately 1 cm long) was made over the parieto-occipital bone using a sterile scalpel. Then a hole was punctured on the skull at 2.5 mm to the right of the bregma and 1 mm anterior to the coronal suture using a sterile 25-gauge sharp drill. […] The bioluminescent signals of the implanted cells were measured by the Xenogen IVIS spectrum imaging system (PerkinElmer, USA) to monitor tumor growth. […]
(§1) In both BM and LM models, the day of randomization was defined as Day 0 and the treatment was started one day after randomization. The bioluminescence signals and body weight of the mice were measured once weekly. Relative bioluminescence intensity on a specific day was calculated by dividing the bioluminescence intensity on that day by the bioluminescence intensity on Day 0. The tumour growth inhibition (TGI) was calculated by formula: TGI (%) = (1-(relative bioluminescence intensity of treated group)/(relative bioluminescence intensity of control group)) x 100.Establishment of SC model

[4] = tested on: BT474C1-Luci Mono1 LM xenograft; assay: LM (leptomeningeal metastasis) BT474C1-Luci Mono1 xenograft model; type: in vivo, nude mice
Experimental: The LM model was generated by implanting 10 µl of cell suspension containing 1 × 10^4 BT474C1-Luci Mono1 cells through cisterna magna into each mouse under anaesthesia following similar procedures as described in the literature (31). 17β- ESTRADIOL (90-day release 0.36 mg/pellet) were injected subcutaneously 24 hrs before cell inoculation. Under anaesthesia, mice were placed in the prone position with their neck draped over a cylinder. The head was immobilized with the thumb and mid-finger, with the index finger palpating the space between the occiput and C1. BT474c1-Luci Mono1 cell suspension at 10 µl containing 0.01 million cells were injected intracisternally. When the bioluminescent signal reached > 5 × 10^6 photon/s, animals were randomized for treatment. […]
as §1

[5] = tested on: HER2+ metastatic breast cancer; assay: Phase 1 study: antitumor activity (modified RECIST v1.1); type: in vivo, human
Experimental: (§2) Tumor imaging assessments were conducted every 6 weeks during the first 24 weeks (relative to C1D1) and every 9 weeks thereafter per investigator review according to modified RECIST v1.1 until progressive disease, starting a new anticancer therapy or withdrawal of informed consent (Additional file 1).
as §2, with “six” for “6”, “nine” for “9”, “anti-cancer” for “anticancer”, “consent. Patients who achieved an objective response had confirmatory scans at least four weeks apart.” for “consent (Additional file 1).”
The modified RECIST 1.1 used in this study includes both CNS assessment and extracranial assessment. A maximum of five measurable extracranial lesions, with a maximum of two lesions per organ, were selected in patients with extracranial disease. In addition, a maximum of five measurable intracranial lesions were selected in patients with intracranial disease. […] An overall response will be derived based on extracranial and intracranial response as described in the below table.

HER2 = HER2 (Homo sapiens, UniProt P04626); assay: pHER2 MSD assay in BT474C1 cells; type: cell-based; parameters: endogenous in cells; host or cells: BT474C1-Luci Mono1 (BT474 transfected with luciferase only); conditions: BT474C1, 4 hrs treatment
Chain of HER2 (P04626 23-1255): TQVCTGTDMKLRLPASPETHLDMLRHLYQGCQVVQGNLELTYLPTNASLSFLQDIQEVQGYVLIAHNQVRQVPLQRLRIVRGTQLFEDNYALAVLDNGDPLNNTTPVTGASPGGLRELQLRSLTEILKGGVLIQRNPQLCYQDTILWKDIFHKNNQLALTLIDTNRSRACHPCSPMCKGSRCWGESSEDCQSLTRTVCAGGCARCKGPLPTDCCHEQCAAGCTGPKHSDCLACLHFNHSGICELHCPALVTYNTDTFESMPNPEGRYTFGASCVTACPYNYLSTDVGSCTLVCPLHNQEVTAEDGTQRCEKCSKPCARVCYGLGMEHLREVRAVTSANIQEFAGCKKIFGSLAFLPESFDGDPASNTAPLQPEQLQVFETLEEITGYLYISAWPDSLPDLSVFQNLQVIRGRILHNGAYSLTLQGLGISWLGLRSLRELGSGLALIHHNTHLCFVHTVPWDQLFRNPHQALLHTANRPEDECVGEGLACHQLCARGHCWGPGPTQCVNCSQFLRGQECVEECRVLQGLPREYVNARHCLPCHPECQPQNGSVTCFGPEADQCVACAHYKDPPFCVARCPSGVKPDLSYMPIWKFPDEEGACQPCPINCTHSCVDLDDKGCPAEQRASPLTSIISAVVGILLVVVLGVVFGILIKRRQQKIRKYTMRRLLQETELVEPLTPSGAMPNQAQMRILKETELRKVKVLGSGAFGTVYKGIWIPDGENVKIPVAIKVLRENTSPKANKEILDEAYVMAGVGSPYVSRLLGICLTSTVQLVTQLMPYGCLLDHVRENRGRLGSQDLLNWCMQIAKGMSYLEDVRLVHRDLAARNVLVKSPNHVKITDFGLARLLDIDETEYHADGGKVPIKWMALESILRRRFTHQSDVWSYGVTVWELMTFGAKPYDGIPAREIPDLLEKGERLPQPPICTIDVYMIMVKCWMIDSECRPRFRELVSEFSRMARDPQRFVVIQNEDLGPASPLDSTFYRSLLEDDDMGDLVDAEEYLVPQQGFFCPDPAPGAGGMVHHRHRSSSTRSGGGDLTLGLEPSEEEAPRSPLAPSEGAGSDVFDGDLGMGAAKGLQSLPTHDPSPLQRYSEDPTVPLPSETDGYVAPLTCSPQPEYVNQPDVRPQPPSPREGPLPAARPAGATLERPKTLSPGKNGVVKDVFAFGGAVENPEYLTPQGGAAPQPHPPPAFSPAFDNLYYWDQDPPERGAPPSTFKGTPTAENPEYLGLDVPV
Experimental: A431 and BT474C1-Luci Mono1 cells were seeded in 96-well plates at 20,000 cells/well in DMEM medium containing 1% FBS. After overnight incubation, all cells were treated with compounds at a series of concentrations for 4 hrs. For A431 cell line, an extra stimulation with recombinant human EGF (100 ng/ml for 10 minutes) is applied to activate wild-type EGFR following compound treatment. pEGFR^Y1068 and total EGFR levels were measured by an electro chemiluminescent method (MULTI-SPOT®96 4-Spot HB Prototype EGFR Triplex […]: pEGFR (Y1068), Total EGFR; MESO SCALE DISCOVERY, Cat# N45ZB-1) with MSD SECTOR® Imager, which outputs the ratio of pEGFR/total EGFR for each well. pHER2^Y1248 and total HER2 levels were measured similarly using pHER2 (Y1248) Assay Whole Cell Lysate Kit (MESO SCALE DISCOVERY, Cat# K151CLD-3). The percentage of inhibition was calculated as: % Inhibition = 100 x [1 - (ratio of the sample well - ratio of Min ctrl well)/ (ratio of Max ctrl well - ratio of Min ctrl well)].

## COc1cc(O[C@H]2CCN(C)CC2(F)F)c2c(Nc3ccc(Oc4ccn5ncnc5c4)c(C)c3)ncnc2c1 [DZD1516]
[1]
  hepatocyte CLint: 12 µL/min/1e6 cells
[2]
  Kp uu: 0.57 to 0.87
[3]; 100 mg/kg twice daily
  TGI: 48%
[3]; 150 mg/kg twice daily
  TGI: 79%
[4]; 100 mg/kg twice daily
  TGI: 57%
[4]; 150 mg/kg twice daily
  TGI: 81%
[5]; MTD (250 mg), 3/5
  disease control rate: 60%
[5]; all dose levels
  patients who achieved stable disease: 6 out of 23
[5]; patients, median seven lines of prior systemic therapy
  best antitumor efficacy in intracranial, extracranial and overall lesions: stable disease
HER2
  IC50: 4.4 nM
